Like-named read-outs stand apart in the source and are kept apart here.
Key:
[1] = test system: solid and haematological tumours; details: cited from earlier work; for dose-limiting toxicities: 2008
[2] = design: method as in Qian et al, 2006; details: combined with paclitaxel, docetaxel and carboplatin, in vitro and in vivo; ref Qian et al, 2006; cited from earlier work
[3] = test system: advanced solid malignancy; assay: Anti-tumour activity by CT/MRI (RECIST) in phase I patients; type: in vivo, human; details: for duration of response: confirmed PR
[4] = test system: class I and II recombinant HDAC isoforms; design: method as in Khan et al, 2008; details: ref Khan et al, 2008; cited from earlier work
[5] = test system: patients with advanced solid malignancy; details: in vivo
Protocol: Belinostat was administered in escalating doses of 600, 800 and 1000 mg m^−2 per day as a 30-min i.v. infusion on days 1–5 q21. Carboplatin was administered as a 30-min i.v. infusion at area under the curve (AUC) 5 on day 3 q21 days, whereas paclitaxel was administered at 175 mg m^−2 i.v. over 3 h. Cytotoxics were given 2–3 h after the administration of belinostat–paclitaxel followed by carboplatin. […] Carboplatin was dosed in accordance with the Calvert formula using ethylenediaminetetraacetic acid clearance to estimate glomerular filtration rate (GFR) ([Calvert et al, 1989]) at the European Union sites and the Jelliffe formula at sites in the United States ([Jelliffe, 1973]). Prophylactic anti-emetic and hypersensivity prophylaxis for paclitaxel were administered as per local standards.
A DLT was defined as an absolute neutrophil count <0.5 × 10^9 l^−1 lasting for ⩾7 days, or absolute neutrophil count <0.5 × 10^9 l^−1 with sepsis; or platelet count <25 × 10^9 l^−1. In addition, any other drug-related non-haematological grade III or IV toxicity with the exceptions of alopecia, nausea and vomiting, diarrhoea, rash, arthralgias and myalgias was categorized as DLT.
Dose escalation was planned in a classical 3+3 design in up to five cohorts. In cohort 1A, belinostat was to be administered at 600 mg m^−2 together with carboplatin AUC 5; in cohort 1B, […] with paclitaxel 175 mg m^−2. In cohort 2, belinostat at 600 mg m^−2 was to be administered with both carboplatin AUC 5 and paclitaxel at 175 mg m^−2. In cohorts 3 and 4, belinostat was to be administered at 800 and 1000 mg m^−2, respectively, together with the same doses of BelCaP. Treatment cycles were to be repeated until disease progression, evidence of significant treatment-related toxicities, or withdrawal of consent. Up to two dose reductions were to be allowed of all three drugs.
Pre-treatment evaluation included history, physical examination, laboratory assessments, chest x-ray, electrocardiogram (ECG), urinalysis and tumour evaluation with computed tomography (CT) or magnetic resonance imaging (MRI). Laboratory assessments (complete blood count, clotting screen, urea, creatinine, electrolytes, liver function tests, uric acid, glucose and cholesterol) were performed pre-treatment and weekly thereafter as well as on day 4 of cycles 1 and 2 only. Electrocardiograms were performed before and within 1 h after treatment with belinostat in cycle 1 and on day 1 only of all subsequent cycles. Central ECG reading was carried out using a digital analysis method.
Toxicities were graded according to the National Cancer Institute Common Terminology Criteria for Adverse Events version 3.0. Efficacy was assessed by CT or MRI performed every two cycles using Response Evaluation Criteria in Solid Tumors (RECIST) ([Therasse et al, 2000]).

[6] = Belinostat plasma pharmacokinetics in patients (HPLC-MS/MS, non-compartmental); type: in vivo, human; details: for Cl / Vss / AUC / AUC(0-inf) / Cmax / half-life: mean±s.d.; for AUC / AUC(0-inf) / Cmax / half-life: human, plasma, iv
Protocol: Belinostat and paclitaxel levels were determined in lithium-heparinised plasma using validated solid-phase extraction high performance liquid chromatograpgy (HPLC)-tandem mass spectrometric detection (MS/MS) methods (Covance, Indianapolis, IN, USA). […] Belinostat plasma concentrations were determined at Covance using a validated method involving solid-phase extraction, separation with acetic acid acetonitril gradient on reversed phase C18 silica and MS/MS using penta-deuterated belinostat as the internal standard. […] For all analytes the AUC was estimated from the start of infusion by the logarithmic-linear trapezoidal rule and extrapolated to infinity using the estimated value of the slope of the terminal logarithmic-linear disposition phase.

[7] = eight patients with best response s.d.
[8] = belinostat 600 mg m^−2 i.v., days 1 and 3, 12 patients
[9] = belinostat 800 mg m^−2 i.v., days 1 and 3, 4 patients
[10] = belinostat 1000 mg m^−2 i.v., day 1, 7 patients
[11] = belinostat 1000 mg m^−2 i.v., day 3, 7 patients
[12] = 600 mg, belinostat 600 mg m^−2 i.v., days 1 and 3, 12 patients
[13] = 800 mg, belinostat 800 mg m^−2 i.v., days 1 and 3, 4 patients
[14] = 1000 mg, belinostat 1000 mg m^−2 i.v., day 1, 7 patients
[15] = 1000 mg, belinostat 1000 mg m^−2 i.v., day 3, 7 patients

Question: What does the source list for `O=C(/C=C/c1cccc(S(=O)(=O)Nc2ccccc2)c1)NO` [belinostat]?
Answer: myelosuppression ([1]; single agent phase I studies, ref Steele et al, 2008, Gimsing et al): no significant myelosuppression; maximum tolerated dose (MTD) ([1]; single agent, i.v., q21 days, ref Steele et al, 2008, Gimsing et al): 1000 mg m^−2 per day; dose-limiting toxicities ([1]; single agent, solid tumour study, ref Steele et al): fatigue, diarrhoea and atrial fibrillation; dose-limiting toxicities ([1]; single agent, study of haematological tumours, ref Gimsing et al): none were seen; combination effect [2]: additive to synergistic; patients with best response of s.d. ([3]; 14 patients evaluable): eight; patients with stable disease lasting ⩾6 months ([3]; belinostat with carboplatin and/or paclitaxel): six and seven; partial responses (number of patients) ([3]; belinostat with carboplatin and/or paclitaxel, 14 patients evaluable, RECIST): two; duration of response ([3]; patient with metastatic pancreatic cancer treated with belinostat and carboplatin): 7 months; duration of response ([3]; patient with metastatic rectal cancer treated with belinostat, carboplatin and paclitaxel): 9 months; duration of s.d., median [3, 7]: 6.6 months; duration of s.d., range [3, 7]: 1–29 months; CA-125 response ([3]; one patient, mixed mullerian tumour of ovarian origin, radiologically s.d. by RECIST): complete CA-125 response; duration of s.d., range ([3]; seven patients with s.d. lasting ⩾6 months): 6–29 months; response in patient with metastatic transitional cell cancer of the bladder ([3]; treated with belinostat and paclitaxel, otherwise rated s.d.): resolution of a bony metastatic deposit; activity against HDAC isoforms [4]: nanomolar activity; Alopecia grade 3, treatment related AE ([5]; human): 0; Arthralgia grade 3, treatment related AE ([5]; human): 0; Flushing grade 3, treatment related AE ([5]; human): 0; Nausea grade 3, treatment related AE ([5]; human): 0; Neutropenia grade 4, treatment related AE ([5]; human): 13%; maximal administered dose of belinostat ([5]; human): 1000 mg m^−2 per day; recommended dose of belinostat ([5]; human, iv): 1000 mg m^−2 per day; cardiac toxicity [5]: no cardiac toxicity; grade IV non-haematological adverse events [5]: no grade IV non-haematological adverse events; accumulation with repeat dosing ([6]; 1000 mg m^−2 per day, day 3 pre-infusion): no accumulation; Cl [6, 8]: 69.7±15.2 l h^−1 m^−2; Vss [6, 8]: 34.9±6.4 l m^−2; Cl [6, 9]: 73.7±14.1 l h^−1 m^−2; Vss [6, 9]: 38.1±9.7 l m^−2; Cl [6, 10]: 41.1±22.2 l h^−1 m^−2; Vss [6, 10]: 22.6±9.7 l m^−2; Cl [6, 11]: 45.1±17.3 l h^−1 m^−2; Vss [6, 11]: 35.8±17.3 l m^−2; patients with pre-infusion plasma value on day 3 below the limit of quantitation ([6]; belinostat 1000 mg m^−2 per day, limit of quantitation 5 ng ml^−1): five of seven; effect of concurrent administration on pharmacokinetics ([6]; belinostat with carboplatin and/or paclitaxel on day 3): unaltered; dose proportionality of pharmacokinetics ([6]; dose range 600–1000 mg m^−2): dose proportional; AUC [6, 12]: 28.4 ± 7.1 µM·h; AUC(0-inf) [6, 12]: 28.4 ± 7.1 µM·h; Cmax [6, 12]: 58.5 ± 13.8 µM; half-life [6, 12]: 1.7 ± 0.9 h; AUC [6, 13]: 35.5 ± 8.7 µM·h; AUC(0-inf) [6, 13]: 35.6 ± 8.7 µM·h; Cmax [6, 13]: 70.8 ± 18.9 µM; half-life [6, 13]: 1.7 ± 0.2 h; AUC [6, 14]: 102 ± 58.2 µM·h; AUC(0-inf) [6, 14]: 102 ± 58.3 µM·h; Cmax [6, 14]: 128 ± 43.5 µM; half-life [6, 14]: 1 ± 0.1 h; AUC [6, 15]: 88.8 ± 63.9 µM·h; AUC(0-inf) [6, 15]: 88.8 ± 63.9 µM·h; Cmax [6, 15]: 135 ± 54.9 µM; half-life [6, 15]: 2.7 ± 0.4 h

From paper PMC2905291, “A phase I study of the safety and pharmacokinetics of the histone deacetylase inhibitor belinostat administered in combination with carboplatin and/or paclitaxel in patients with solid tumours” (British Journal of Cancer, 2010)
